Experimental data from patent US9333268B2, “Methods of treatment with arginine deiminase” (Polaris Group, priority 2012, dated 2016).
Structures can show the parent of a compound that is named as a salt.

Tests used:
SK-LC-13 cells = assay: FACS analysis of apoptosis by sub-G1 DNA content (propidium iodide); format: cell-based, human; settings: 25 nM, 72 h
Experimental: Apoptosis was measured by FACS of propidium-iodide-stained cells as detailed by Riccardi et al (Riccardi and Nicoletti, Nat Protoc 1(3):1458-1461, 2006). Cells were plated in 24-well plates and treated with ADI-PEG 20 for […]. Cells were then harvested, washed and fixed in 70% ethanol. DNA was then stained using 20 μg ml^−1 propidium iodide containing 10 μgml^−1 DNAse-free RNAse A (Sigma-Aldrich). Cells were then read on a BD FACSCalibur (BD Biosciences) and analyzed using Flow Jo Software (Tree Star, Ashland, Oreg., USA).
In order to determine the possible mechanism of the antiproliferative effects of ADI-PEG 20 a FACS analysis of apoptosis by sub-G1 DNA content was performed. Cells were treated for 72 h before the analysis was performed.

SK-LC-13 = assay: Western blot of autophagy-related protein LC3-II; format: cell-based, human; settings: 24 hour incubation
Text: Following washing, the membranes were then probed with the appropriate secondary antibody before proteins were finally visualized using ECL reagent (Perkin-Elmer, Fremont Calif., USA).
An assay for the formation of the autophagy-related protein LC3-II assessed if treatment with ADI-PEG 20 was able to induce cellular autophagy in SCLC. […] Chloroquine is a known inhibitor of autophagy that disrupts normal lysosomal functions, and thus results in an increase in the cellular level of LC3-II.

[1] = system: human pancreatic cancer cell line MIA-PaCa2; assay: Western blot/ELISA of caspase 3 cleavage, LC3 and p62; format: cell-based; settings: ChQ 5 μM added to ADI-PEG 0.3 μg/mL, 72 hours
Experimental: The human pancreatic cancer cell line MIA-PaCa2 was treated in vitro and in vivo with pegylated arginine deiminase (ADI-PEG) alone or in the presence of ChQ. Cell death was measured by propidium iodide (PI)-FACS to determine sub-G1 DNA content, and apoptosis was evaluated by Annexin V-PI flow cytometry. Cleavage of caspase 3 was evaluated by western blots and ELISA. Autophagy was measured by evaluating the expression levels of LC3 and […] p62 (p62) by western blots and ELISA.
In order to determine if ADI induces apoptosis and autophagy in a caspase dependent manner, cells were incubated with either ADI-PEG or a combination of ADI-PEG and ZVAD-fmk, a pan-caspase inhibitor.
The levels of p62, LC3B-I, and LC3B-II were measured by western blot analysis in order to examine autophagic flux.

CC[C@@]1(O)C(=O)OCc2c1cc1n(c2=O)Cc2cc3c(CN(C)C)c(O)ccc3nc2-1 [topotecan, Topotecan hydrochloride, reference compound]
cells in apoptosis (sub-G1 DNA content) (SK-LC-13 cells): around 45%

CCN(CC)CCCC(C)Nc1ccnc2cc(Cl)ccc12 (stereo not drawn) [chloroquine, reference compound]
cellular level of LC3-II (SK-LC-13): very robust expression of LC3-II

CCN(CCO)CCCC(C)Nc1ccnc2cc(Cl)ccc12 (stereo not drawn) [ChQ, hydroxychloroquine]
ADI induced apoptosis [1]: enhanced ADI induced apoptosis | LC3B-I and LC3B-II [1]: increase in the build up of both LC3B-I and LC3B-II | autophagic flux [1]: diminished autophagic flux | level of p62 [1]: increase in the level of p62
